Consider 19 compounds from US9630958B2, “Triazine compounds” (Sphaera Pharma Pte. Ltd., priority 2012, dated 2017).

Bounds are passed on as bounds.

The target of assay [1] is T1, PI3 Kinase alpha (p110 alpha/p85 alpha) (Homo sapiens, UniProt P42336).
T1 construct: purchased Invitrogen
The experiment in a line: PI3K TR-FRET assay (Transcreener ADP2). It is filed as biochemical. The settings on record: for IC50: PI3K alpha, 1 μM ATP, 50 μM PIP2; for inhibition at 1 µM: 1 uM compound, read-out: PI3K % Inhib@1 uM. Put shortly: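 p110α/p85α with diC8 PIP2 (50 μM) and 1 μM ATP in 50 mM HEPES pH 7.4, MgCl2, CHAPS, DTT, EGTA; 1 h at room temperature. ADP detected by Transcreener ADP2 TR-FRET (665/615 nm ratio), converted to product via ADP-ATP standard curve; IC50 from four-parameter fit of % inhibition.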

The target of the next assay is T2, Recombinant mTOR (FRAP1) (Homo sapiens, UniProt P42345).
T2 construct: purchased Invitrogen
The experiment in a line: mTOR in vitro kinase assay (TR-FRET, phosphorylation of GFP-4E-BP1). The format is biochemical. The following applies: for inhibition at 1 µM: 1 uM compound, read-out: mTOR % Inhib@1 uM; for IC50: 8 μM ATP, 400 nM GFP-4E-BP1. Put shortly:
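Recombinant human mTOR with GFP-4E-BP1 substrate at 400 nM and 8 μM ATP, 1 h at room temperature, then quenched with 10 mM EDTA plus 2 nM Tb-anti-p4E-BP1 (pThr46) for 1 h. TR-FRET 520/486 nm ratio fitted against inhibitor concentration by four-parameter sigmoidal regression.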

T2 sequence (P42345 1360-2549 limits assumed): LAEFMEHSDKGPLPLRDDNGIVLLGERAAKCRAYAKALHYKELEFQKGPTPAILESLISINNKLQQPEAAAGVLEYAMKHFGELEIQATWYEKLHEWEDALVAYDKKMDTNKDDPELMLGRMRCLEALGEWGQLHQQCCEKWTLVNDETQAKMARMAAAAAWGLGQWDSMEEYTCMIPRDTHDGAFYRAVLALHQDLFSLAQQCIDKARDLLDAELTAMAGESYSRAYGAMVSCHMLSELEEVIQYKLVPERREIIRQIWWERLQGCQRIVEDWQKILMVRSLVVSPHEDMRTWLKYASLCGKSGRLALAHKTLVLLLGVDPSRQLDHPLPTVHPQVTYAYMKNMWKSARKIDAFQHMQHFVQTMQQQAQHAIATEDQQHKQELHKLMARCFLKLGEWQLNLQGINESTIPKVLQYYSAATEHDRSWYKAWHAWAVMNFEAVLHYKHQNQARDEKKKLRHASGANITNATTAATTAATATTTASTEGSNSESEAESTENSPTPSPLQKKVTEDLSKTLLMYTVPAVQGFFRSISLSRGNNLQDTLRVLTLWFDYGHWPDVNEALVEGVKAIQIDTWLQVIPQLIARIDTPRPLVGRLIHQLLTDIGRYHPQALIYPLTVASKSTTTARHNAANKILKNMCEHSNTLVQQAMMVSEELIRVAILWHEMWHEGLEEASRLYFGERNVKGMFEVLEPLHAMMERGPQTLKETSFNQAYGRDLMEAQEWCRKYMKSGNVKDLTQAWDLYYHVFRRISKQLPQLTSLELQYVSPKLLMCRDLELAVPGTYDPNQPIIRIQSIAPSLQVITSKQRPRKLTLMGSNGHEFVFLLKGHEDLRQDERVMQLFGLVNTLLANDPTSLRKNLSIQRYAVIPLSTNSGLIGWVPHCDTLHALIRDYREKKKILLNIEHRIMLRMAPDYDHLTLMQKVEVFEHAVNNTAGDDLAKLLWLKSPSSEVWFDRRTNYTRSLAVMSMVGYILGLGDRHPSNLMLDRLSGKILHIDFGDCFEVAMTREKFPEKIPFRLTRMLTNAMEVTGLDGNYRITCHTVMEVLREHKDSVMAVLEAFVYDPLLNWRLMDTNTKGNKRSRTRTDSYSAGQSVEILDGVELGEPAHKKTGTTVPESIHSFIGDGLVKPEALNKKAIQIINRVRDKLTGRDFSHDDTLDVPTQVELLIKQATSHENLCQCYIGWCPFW
T1 sequence (P42336 whole entry): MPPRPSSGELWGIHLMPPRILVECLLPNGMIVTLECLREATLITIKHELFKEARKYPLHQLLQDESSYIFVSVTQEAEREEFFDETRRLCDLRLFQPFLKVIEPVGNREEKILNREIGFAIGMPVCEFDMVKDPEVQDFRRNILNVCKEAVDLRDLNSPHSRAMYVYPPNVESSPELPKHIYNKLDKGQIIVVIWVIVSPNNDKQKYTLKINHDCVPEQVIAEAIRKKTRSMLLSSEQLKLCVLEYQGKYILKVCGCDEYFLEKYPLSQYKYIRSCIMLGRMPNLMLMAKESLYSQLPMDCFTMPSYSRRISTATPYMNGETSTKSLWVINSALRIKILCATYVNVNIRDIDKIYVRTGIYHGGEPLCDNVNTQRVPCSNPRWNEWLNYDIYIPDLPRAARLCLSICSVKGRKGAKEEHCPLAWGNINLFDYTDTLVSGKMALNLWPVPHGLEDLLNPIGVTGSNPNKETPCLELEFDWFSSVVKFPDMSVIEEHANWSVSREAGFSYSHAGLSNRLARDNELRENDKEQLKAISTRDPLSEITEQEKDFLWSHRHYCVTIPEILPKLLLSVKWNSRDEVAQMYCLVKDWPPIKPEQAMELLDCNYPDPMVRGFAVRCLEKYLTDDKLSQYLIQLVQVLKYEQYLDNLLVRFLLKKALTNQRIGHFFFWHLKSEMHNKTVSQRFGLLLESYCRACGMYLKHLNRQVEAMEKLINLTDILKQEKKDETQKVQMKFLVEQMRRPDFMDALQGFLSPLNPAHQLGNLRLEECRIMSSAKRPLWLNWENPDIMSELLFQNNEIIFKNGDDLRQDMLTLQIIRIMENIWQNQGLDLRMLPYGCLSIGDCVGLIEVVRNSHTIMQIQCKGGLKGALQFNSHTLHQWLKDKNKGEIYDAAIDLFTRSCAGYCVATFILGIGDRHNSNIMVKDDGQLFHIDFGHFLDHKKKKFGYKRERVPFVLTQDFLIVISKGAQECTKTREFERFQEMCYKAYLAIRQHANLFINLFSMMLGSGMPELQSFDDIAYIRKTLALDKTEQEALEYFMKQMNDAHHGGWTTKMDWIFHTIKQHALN
T1 sequence (P27986 whole entry partner): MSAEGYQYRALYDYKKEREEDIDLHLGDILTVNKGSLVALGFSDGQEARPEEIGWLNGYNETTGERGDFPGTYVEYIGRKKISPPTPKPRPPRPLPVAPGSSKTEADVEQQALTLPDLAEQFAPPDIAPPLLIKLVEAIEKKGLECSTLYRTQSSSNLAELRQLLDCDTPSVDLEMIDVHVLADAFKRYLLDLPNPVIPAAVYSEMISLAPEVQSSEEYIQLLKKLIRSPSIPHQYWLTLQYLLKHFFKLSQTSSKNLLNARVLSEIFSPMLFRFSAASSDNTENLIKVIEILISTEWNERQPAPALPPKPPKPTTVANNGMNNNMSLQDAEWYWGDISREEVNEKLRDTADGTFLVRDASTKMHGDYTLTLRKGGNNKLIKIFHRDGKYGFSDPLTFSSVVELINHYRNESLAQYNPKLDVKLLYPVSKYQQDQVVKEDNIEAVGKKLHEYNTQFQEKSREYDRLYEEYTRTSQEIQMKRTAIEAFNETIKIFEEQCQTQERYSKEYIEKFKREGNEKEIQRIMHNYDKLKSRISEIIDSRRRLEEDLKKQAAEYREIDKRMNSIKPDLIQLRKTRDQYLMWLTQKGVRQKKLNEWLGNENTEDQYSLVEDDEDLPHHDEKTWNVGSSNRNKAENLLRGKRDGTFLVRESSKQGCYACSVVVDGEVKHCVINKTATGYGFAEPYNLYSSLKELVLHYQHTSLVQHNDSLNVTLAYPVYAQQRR

`CN(C)C(=O)[C@H]1CC[C@H](Oc2nc(-c3ccc(N)nc3)nc(N3CCOCC3)n2)CC1` [Compound 10049, (1r,4r)-4-(4-(6-aminopyridin-3-yl)-6-morpholino-1,3,5-triazin-2-yloxy)-N,N-dimethylcyclohexanecarboxamide]: the IC50 (in assay [1]; at Recombinant mTOR (FRAP1)) was under 1000 nM each time. Moreover, at Recombinant mTOR (FRAP1), the inhibition at 1 µM was over 50%.
`CS(=O)(=O)N1CCC(COc2nc(-c3cnc(N)s3)nc(N3CCOCC3)n2)CC1` [Compound 10194, 5-(4-((1-(methylsulfonyl)piperidin-4-yl)methoxy)-6-morpholino-1,3,5-triazin-2-yl)thiazol-2-amine]: the IC50 – broadly, the point on the concentration scale where inhibition reaches its midpoint – in assay [1] was under 1000 nM. Besides, the inhibition at 1 µM at Recombinant mTOR (FRAP1) is under 50%.
The like results for `Nc1ccc(-c2nc(CO)nc(N3CCOCC3)n2)cn1` [Compound 10176, (4-(6-aminopyridin-3-yl)-6-morpholino-1,3,5-triazin-2-yl)methanol] were, in that order, under 1000 nM and under 50%.
For the compound `CN(C)C(=O)c1ccc(Oc2nc(-c3cnc(N)s3)nc(N3CCSCC3)n2)cc1` [Compound 10118, 4-(4-(2-aminothiazol-5-yl)-6-thiomorpholino-1,3,5-triazin-2-yloxy)-N,N-dimethylbenzamide], the results for the IC50 (in assay [1]; on Recombinant mTOR (FRAP1)) were over 1000 nM and over 3000 nM, respectively. Also, on Recombinant mTOR (FRAP1), the inhibition at 1 µM was over 50%.
Turning to `CC[C@H]1COCCN1c1nc(Oc2ccc(C(=O)N(C)C)cc2)nc(-c2cnc(N)s2)n1` [Compound 10081, (S)-4-((4-(2-Aminothiazol-5-yl)-6-(3-ethylmorpholino)-1,3,5-triazin-2-yl)oxy)-N,N-dimethylbenzamide], in assay [1], the inhibition at 1 µM was over 50% and the 50% inhibitory concentration (IC50) was under 1000 nM. For the same compound, at Recombinant mTOR (FRAP1), the inhibition at 1 µM was over 50% and the IC50 was under 1000 nM.
For the compound `C[C@H]1COCCN1c1nc(Oc2ccc(C(=O)N(C)C)cc2)nc(-c2cnc(N)s2)n1` [Compound 10005, (S)-4-(4-(2-aminothiazol-5-yl)-6-(3-methylmorpholino)-1,3,5-triazin-2-yloxy)-N,N-dimethylbenzamide], the 50% inhibitory concentration (IC50) in assay [1] was under 1000 nM. Also, at Recombinant mTOR (FRAP1), the inhibition at 1 µM is over 50% and the IC50 is under 1000 nM.
`C[C@@H]1CN(c2nc(Oc3ccc(C(=O)N(C)C)cc3F)nc(-c3ccc(N)nc3)n2)[C@@H](C)CO1` [Compound 10098, 4-((4-(6-Aminopyridin-3-yl)-6-((2R,5S)-2,5-dimethylmorpholino)-1,3,5-triazin-2-yl)oxy)-3-fluoro-N,N-dimethylbenzamide]: in assay [1], the inhibition at 1 µM is over 50% and the IC50 was under 1000 nM. In addition, the IC50 on Recombinant mTOR (FRAP1) is under 1000 nM.
On to `CNC(=O)c1ccc(Oc2nc(-c3cnc(N)s3)nc(N3CCOCC3)n2)cc1` [Compound 10193, 4-((4-(2-aminothiazol-5-yl)-6-morpholino-1,3,5-triazin-2-yl)oxy)-N-methylbenzamide], for which, in assay [1], the IC50 is under 1000 nM. Further, the inhibition at 1 µM at Recombinant mTOR (FRAP1) was under 50%.
On to `C[C@H]1COCCN1c1nc(Oc2ccc(C(=O)N(C)C)cc2F)nc(-c2ccc(N)nc2)n1` [Compound 10058, (S)-4-((4-(6-Aminopyridin-3-yl)-6-(3-methylmorpholino)-1,3,5-triazin-2-yl)oxy)-3-fluoro-N,N-dimethylbenzamide], for which the IC50 (in assay [1]; at Recombinant mTOR (FRAP1)) was under 1000 nM each time.
On to `C[C@H]1COCCN1c1nc(Oc2ccc(C(=O)N(C)C)cc2)nc(-c2cnc(N)nc2)n1` [Compound 10126, 4-(4-(2-aminopyrimidin-5-yl)-6-((S)-3-methylmorpholino)-1,3,5-triazin-2-yloxy)-N,N-dimethylbenzamide], for which the IC50 in assay [1] was under 1000 nM. At Recombinant mTOR (FRAP1), the inhibition at 1 µM was over 50% and the IC50 is under 1000 nM.
Regarding `CN(C)C(=O)[C@H]1CC[C@H](Oc2nc(-c3cnc(N)s3)nc(N3CCO[C@H]4CCC[C@@H]43)n2)CC1` [Compound 10145, (1S,4r)-4-(4-(2-aminothiazol-5-yl)-6-((4aS,7aS)-hexahydrocyclopenta[b][1,4]oxazin-4(4aH)-yl)-1,3,5-triazin-2-yloxy)-N,N-dimethylcyclohexanecarboxamide], the inhibition at 1 µM in assay [1] was under 50%. For the same compound, the IC50 on Recombinant mTOR (FRAP1) is over 1000 nM.
For `C[C@@H]1CN(c2nc(Oc3ccc(C(=O)N(C)C)cc3)nc(-c3cnc(N)s3)n2)C[C@H](C)O1` [Compound 10122, 4-(4-(2-aminothiazol-5-yl)-6-((2S,6R)-2,6-dimethylmorpholino)-1,3,5-triazin-2-yloxy)-N,N-dimethylbenzamide], in assay [1], the inhibition at 1 µM was under 50%. For the same compound, at Recombinant mTOR (FRAP1), the inhibition at 1 µM is over 50% and the IC50 is over 1000 nM.
Take `C[C@H]1COC[C@H](C)N1c1nc(Oc2ccc(C(=O)N(C)C)cc2)nc(-c2cnc(N)s2)n1` [Compound 10078, 4-((4-(2-Aminothiazol-5-yl)-6-((3S,5S)-3,5-dimethylmorpholino)-1,3,5-triazin-2-yl)oxy)-N,N-dimethybenzamide]: the inhibition at 1 µM (in assay [1]; on Recombinant mTOR (FRAP1)) was over 50% each time. Besides, the IC50 (in assay [1]; at Recombinant mTOR (FRAP1)) was under 1000 nM throughout.
The compound `CN(C)C(=O)N1CCC(Oc2nc(-c3ccc(N)nc3)nc(N3CCOCC3)n2)CC1` [Compound 10021, 4-(4-(6-aminopyridin-3-yl)-6-morpholino-1,3,5-triazin-2-yloxy)-N,N-dimethylpiperidine-1-carboxamide] displayed an IC50 in assay [1] of under 1000 nM. At Recombinant mTOR (FRAP1), the inhibition at 1 µM was over 50% and the IC50 is under 1000 nM.
With `Nc1ccc(-c2nc(Oc3ccc4c(c3)CCC(=O)N4)nc(N3CCOCC3)n2)cn1` [Compound 10182, 6-((4-(6-aminopyridin-3-yl)-6-morpholino-1,3,5-triazin-2-yl)oxy)-3,4-dihydroquinolin-2(1H)-one], in assay [1], the IC50 is under 1000 nM. On Recombinant mTOR (FRAP1), the inhibition at 1 µM was over 50% and the IC50 is over 1000 nM.
For `CC[C@@H]1COCCN1c1nc(Oc2ccc(C(=O)N(C)C)cc2)nc(-c2cnc(N)s2)n1` [Compound 10082, (R)-4-((4-(2-Aminothiazol-5-yl)-6-(3-ethylmorpholino)-1,3,5-triazin-2-yl)oxy)-N,N-dimethylbenzamide], the inhibition at 1 µM (in assay [1]; on Recombinant mTOR (FRAP1)) was under 50% in each case.
As to `CN(C)C(=O)c1ccc(Oc2nc(-c3cnc(N)s3)nc(N3CCNC(=O)CC3)n2)cc1` [Compound 10071, 4-((4-(2-Aminothiazol-5-yl)-6-(5-oxo-1,4-diazepan-1-yl)-1,3,5-triazin-2-yl)oxy)-N,N-dimethylbenzamide], the inhibition at 1 µM (in assay [1]; on Recombinant mTOR (FRAP1)) was under 50% throughout.
For `CN(C)C(=O)c1ccc(Oc2nc(-c3cnc(N)s3)nc(N3CCO[C@H]4CCC[C@@H]43)n2)c(F)c1` [Compound 10146, 4-(4-(2-aminothiazol-5-yl)-6-((4aS,7aS)-hexahydrocyclopenta[b][1,4]oxazin-4(4aH)-yl)-1,3,5-triazin-2-yloxy)-3-fluoro-N,N-dimethylbenzamide], the IC50 (in assay [1]; at Recombinant mTOR (FRAP1)) was under 1000 nM in each case.
Regarding `C[C@H]1CN(c2nc(Oc3ccc(C(=O)N(C)C)cc3)nc(-c3cnc(N)s3)n2)CCO1` [Compound 10127, 4-(4-(2-aminothiazol-5-yl)-6-((S)-2-methylmorpholino)-1,3,5-triazin-2-yloxy)-N,N-dimethylbenzamide], the inhibition at 1 µM (in assay [1]; at Recombinant mTOR (FRAP1)) was over 50% in each case. Also, the IC50 (in assay [1]; on Recombinant mTOR (FRAP1)) was under 1000 nM throughout.
